In assay [1] the test system is HspUPO. Particulars: 2 mM H2O2, McIlvaine buffer pH 5, 25 °C; glycosylated enzyme.
In assay [2] the test system is HspUPO. The note with it: 2 mM H2O2, McIlvaine buffer pH 4, 25 °C; glycosylated enzyme.
Assay [3] has as its system HspUPO. Particulars: 2 mM H2O2, McIlvaine buffer pH 7, 25 °C; glycosylated enzyme.
Assay [4] concerns HspUPO. Particulars: 2 mM H2O2, McIlvaine buffer pH 7, 25 °C; glycosylated enzyme. This is another data set of the same source.
For assay [5], the system named is HspUPO. Particulars: 2 mM H2O2, McIlvaine buffer pH 7, 25 °C; glycosylated enzyme. This is another data set of the same source.

Read-outs that look alike come from different tables or passages of the source.

One may read the Km as the substrate concentration at which the rate is half of its maximum. On to `COc1cccc(OC)c1O` [2,6-Dimethoxyphenol], for which the Km in assay [1] was 57.5 ± 5 µM.
`COc1ccc(CO)cc1OC` [2a, 3,4-Dimethoxybenzyl alcohol]: the Km in assay [2] was determined as 758 ± 100 µM.
As for `O=[N+]([O-])c1ccc2c(c1)OCO2` [5-Nitro-1,3-benzodioxole], the Km in assay [3] turned out to be 18 ± 3.42 µM.
Consider `c1ccc2[nH]ccc2c1` [6a, Indole], for which the Km in assay [4] was determined as 54 ± 8.16 µM.
As for `OCc1ccccc1` [Benzyl alcohol], the Km in assay [5] stood at 680 ± 0.14 µM.

(Values after publication PMC7611678 (ACS catalysis, 2021).)
